Columns and labels:
Assay type in all cases: cell-based, mouse
oTME macrophages (BMDMs) = assay: γ-secretase inhibition: Ki67 in M2-educated (oTME) macrophages, flow cytometry
Protocol: BMDMs were co-cultured with oTME cells for 7 days and treated either with CompE ([…]) or DMSO as a control for additional 10 days. Cells were analyzed by flow cytometry for Ki67, F4/80, and CD11b. Data (n=3) are shown as mean±SD., 2-way ANOVA test, Bonferroni-corrected. FIG. 17D is a pre-clinical study design. […] Tumor sizes were recorded by caliper and shown as mean±SD., 2-way ANOVA test, Bonferroni-corrected. At the trial endpoint, lungs were collected and stained with H&E (right). […] At study endpoint, tumor transplants from (FIG. 17E) were scored for Ki67 in macrophages and in tumor cells (PyMT; mT^neg CD45^neg). Data are shown as mean±SD., 2-way ANOVA test, Bonferroni-corrected. Macrophage abundance quantified as percent of CD45+ cells. Data are shown as mean±SD., Mann-Whitney test. […]

[1] = system: Arg1-EYFP BMDMs co-cultured with oTME cells
Protocol: FIGS. 6A-6H show a genome-wide pooled M2-like education screen in primary macrophages. […] Gene hits in EYFP″g BMDMs are highlighted in red. Distribution of LFC values (red lines) across all four sgRNAs of select gene targets (right). […] Arg1-EYFP BMDMs were co-cultured with oTME cells for 7 days, and then were treated with Abemaciclib (5, 10 μM) or DMSO for additional 7 days and analyzed by flow cytometry for EYFP (n=4 replicates). Data are shown as mean±SD., 2-tailed unpaired Student's t-test. […] Arg1-EYFP BMDMs were treated for 7 days with a cytokines cocktail consists of IL-4 (10 ng/mL), IL-13(80ng/mL), M-CSF(10 ng/mL) or with M-CSF alone as control (supplemented every 3 days). Cells were then treated with Abemaciclib (5 μM) or DMSO for additional 7 days and analyzed by flow cytometry for EYFP (n=3 replicates). Data are shown as mean±SD., 2-tailed unpaired Student's t-test. […] Cells then treated with PF-431369 (5 uM) or DMSO for additional 7 days. On day 14, cells were fixed and stained for Arg1 and CD206 and analyzed by flow cytometry. (n=3 replicates). Data are shown as mean±SD., 2-tailed unpaired Student's t-test. […]
Flow Cytometry and Fluorescence-Activated Cell Sorting (FACS): Flow cytometry data were collected using BD LSRFortessa, BD FACSCanto II, and BD FACSAria III was used for FACS-sort. […]

[2] = system: IL-4/IL-13-treated macrophages (BMDMs); assay: Arg1 expression in IL-4/IL-13-treated macrophages (absence of oTME cells), flow cytometry
[3] = system: BMDMs plated with oTME cells; assay: EdU incorporation in macrophages following 48 hrs oTME education in the presence of Tyk2 inhibitors; settings: BMS-986165, 10 μM vs DMSO, EdU 10 μM
Description: FIGS. 3A-3H show the time course single-cell RNAseq analysis of macrophage TME-education. […] Cells were profiled after 2 and 10 days with the 10× Chromium single-cell RNA-seq platform. […] The figure legend is the same as FIG. 3B. FIG. 3D is a heatmap showing macrophage education expression dynamics of M-CSF-treated (n=214), early (day 2, n=235), late (day 10, n=301) genes. The cells are sorted and split into 20 equal-width bins by the education pseudo-time, average expression level (row-wise Z-score; color scale) of education signature genes (rows) across each bin (columns) is shown. The figure legend is the same as FIG. 3B. […] Genes are dotted and colored by logFC levels (color scale), the size of each dot represents the difference in the fraction of detection between the two groups. The p values were determined by Wilcoxon Rank Sum test. Vertical dotted lines represent ±0.75 logFC. Horizontal dotted lines represent p value of 0.01 (−log10 scale). […] Each dot represents an average of cells in 50 equal-width bins on the education pseudo-time axis, same as FIG. 3E. […] EdU incorporation was analyzed by flow cytometry (n=4 replicates). […]
EdU Incorporation: Cells were incubated with 10μM EdU (5-ethynyl-2′-deoxyuridine) without changing conditioned growth medium for the required duration and analyzed by flow cytometry according to the manufacturer's instructions (A10202; Thermo Fisher Scientific). […]

SMILES: C[C@H](NC(=O)Cc1cc(F)cc(F)c1)C(=O)N[C@H]1N=C(c2ccccc2)c2ccccc2N(C)C1=O [Compound-E]
- reduction in Ki67 positivity (oTME macrophages (BMDMs); 7 days co-culture, then CompE or DMSO for additional 10 days): 89.6±3.8%
- expression of F4/80 (oTME macrophages (BMDMs); oTME macrophages after treatment): increased

SMILES: CN(c1ccccc1CNc1nc(Nc2ccc3c(c2)CC(=O)N3)ncc1C(F)(F)F)S(C)(=O)=O [PF-431396]
- Arg1 expression ([1]; oTME macrophages, 10 μM or DMSO for additional 7 days, EYFP by flow cytometry): robust suppression
- Arg1 expression ([2]; IL-4/IL-13-treated macrophages, 5 uM or DMSO for additional 7 days, stained for Arg1 and CD206): robust suppression

SMILES: [2H]C([2H])([2H])NC(=O)c1nnc(NC(=O)C2CC2)cc1Nc1cccc(-c2ncn(C)n2)c1OC [Tyk2 inhibitors, 6-(cyclopropanecarbonylamino)-4-[2-methoxy-3-(1-methyl-1,2,4-triazol-3-yl)anilino]-N-(trideuteriomethyl)pyridazine-3-carboxamide]
- EdU incorporation in oTME macrophages [3]: significantly decreased

SMILES: CCN1CCN(Cc2ccc(Nc3ncc(F)c(-c4cc(F)c5nc(C)n(C(C)C)c5c4)n3)nc2)CC1 [abemaciclib, N-[5-[(4-ethylpiperazin-1-yl)methyl]pyridin-2-yl]-5-fluoro-4-(7-fluoro-2-methyl-3-propan-2-ylbenzimidazol-5-yl)pyrimidin-2-amine]
- Arg1-EYFP expression ([1]; oTME-educated Arg1-EYFP BMDMs, Abemaciclib (5, 10 μM) or DMSO for additional 7 days): dose-dependent reduction
- Arg1-EYFP expression ([2]; IL-4/IL-13/M-CSF for 7 days, then Abemaciclib (5 μM) or DMSO for additional 7 days): suppressed

Reference: US20240043539A1, “METHODS OF INDUCING AN IMMUNOMODULATORY TUMOR RESPONSE” (CORNELL UNIVERSITY, priority 2020, published 2024)
